What was measured:
HL-60(TB) = assay: Anticancer activity, SRB assay, leukemia cell line HL-60(TB); type: cell-based; details: Homo sapiens; Leukemia HL-60(TB); 48 h continuous drug exposure; read-out: Growth Inhibition GI50
Protocol: (§1) Some of biological activity studies were carried out at the National Cancer Institute (NCI), Maryland, USA.
(§2) The compounds were evaluated for anticancer activity against sixty human cancer cells derived from nine cancer types (leukemia cell line, non-small-cell lung cell line, colon cell line, CNS cell line, melanoma cell line, ovarian cell line, prostate cell line, renal cell line and breast cancer cell line) as shown in Table 1. For each compound, dose response curves for each cell line were measured at a minimum of five concentrations at 10 fold dilutions. A protocol of 48 h continuous drug exposure was used and a sulforhodamine B (SRB) protein assay was used to estimate cell viability or growth.

EKVX = assay: Anticancer activity, SRB assay, non-small lung cell line EKVX; type: cell-based; details: Homo sapiens, 48 h continuous drug exposure, read-out: Growth Inhibition GI50
Protocol: as §1, §2

NCI-H226 = assay: Anticancer activity, SRB assay, non-small lung cell line NCI-H226; type: cell-based, human; details: Non-small lung NCl-H226, 48 h continuous drug exposure, —^b means GI50 values not attained at the concentrations used
Protocol: as §1, §2

NCI-H23 = assay: Anticancer activity, SRB assay, non-small lung cell line NCI-H23; type: cell-based; details: Homo sapiens, Non-small lung NCl-H23, 48 h continuous drug exposure, read-out: Growth Inhibition GI50
Protocol: as §1, §2

NCI-H322M = assay: Anticancer activity, SRB assay, non-small lung cell line NCI-H322M; type: cell-based, human; details: Non-small lung NCl-H322M, 48 h continuous drug exposure, —^b means GI50 values not attained at the concentrations used
Protocol: as §1, §2

COLO 205 = assay: Anticancer activity, SRB assay, colon cell line COLO 205; type: cell-based; details: Homo sapiens; Colon COLO 205; 48 h continuous drug exposure; read-out: Growth Inhibition GI50
Protocol: as §1, §2

HCC-2998 = assay: Anticancer activity, SRB assay, colon cell line HCC-2998; type: cell-based, human; details: Colon HCC-2998, 48 h continuous drug exposure, —^b means GI50 values not attained at the concentrations used
Protocol: as §1, §2

HCT-116 = assay: Anticancer activity, SRB assay, colon cell line HCT-116; type: cell-based; details: Homo sapiens; Colon HCT-116; 48 h continuous drug exposure; read-out: Growth Inhibition GI50
Protocol: as §1, §2

KM12 = assay: Anticancer activity, SRB assay, colon cell line KM12; type: cell-based; details: Homo sapiens, 48 h continuous drug exposure, read-out: Growth Inhibition GI50
Protocol: as §1, §2

SF-539 = assay: Anticancer activity, SRB assay, CNS cell line SF-539; type: cell-based, human; details: CNS SF-539, 48 h continuous drug exposure, —^b means GI50 values not attained at the concentrations used
Protocol: as §1, §2

U251 = assay: Anticancer activity, SRB assay, CNS cell line U251; type: cell-based; details: Homo sapiens, U-251, 48 h continuous drug exposure, read-out: Growth Inhibition GI50
Protocol: as §1, §2

IGROV1 = assay: Anticancer activity, SRB assay, ovarian cell line IGROV1; type: cell-based, human; details: —^b means GI50 values not attained at the concentrations used
Protocol: as §1, §2

OVCAR-5 = assay: Anticancer activity, SRB assay, ovarian cell line OVCAR-5; type: cell-based, human; details: Ovarian OVCAR-5, 48 h continuous drug exposure, —^b means GI50 values not attained at the concentrations used
Protocol: as §1, §2

OVCAR-8 = assay: Anticancer activity, SRB assay, ovarian cell line OVCAR-8; type: cell-based, human; details: Ovarian OVCAR-8, 48 h continuous drug exposure, —^b means GI50 values not attained at the concentrations used
Protocol: as §1, §2

A498 = assay: Anticancer activity, SRB assay, renal cell line A498; type: cell-based, human; details: 48 h continuous drug exposure, —^b means GI50 values not attained at the concentrations used
Protocol: as §1, §2

SN12C = assay: Anticancer activity, SRB assay, renal cell line SN12C; type: cell-based, human; details: 48 h continuous drug exposure, —^b means GI50 values not attained at the concentrations used
Protocol: as §1, §2

DU-145 = assay: Anticancer activity, SRB assay, prostate cell line DU-145; type: cell-based, human; details: Prostate DU-145, 48 h continuous drug exposure, —^b means GI50 values not attained at the concentrations used
Protocol: as §1, §2

MCF7 = assay: Anticancer activity, SRB assay, breast cell line MCF7; type: cell-based; details: Homo sapiens, 48 h continuous drug exposure, read-out: Growth Inhibition GI50
Protocol: as §1, §2

T-47D = assay: Anticancer activity, SRB assay, breast cell line T-47D; type: cell-based, human; details: Breast T-47D, 48 h continuous drug exposure, —^b means GI50 values not attained at the concentrations used
Protocol: as §1, §2

LOX IMVI = assay: Anticancer activity, SRB assay, melanoma cell line LOX IMVI; type: cell-based; details: Homo sapiens, 48 h continuous drug exposure, read-out: Growth Inhibition GI50
Protocol: as §1, §2

M14 = assay: Anticancer activity, SRB assay, melanoma cell line M14; type: cell-based; details: Homo sapiens, 48 h continuous drug exposure, read-out: Growth Inhibition GI50
Protocol: as §1, §2

SK-MEL-2 = assay: Anticancer activity, SRB assay, melanoma cell line SK-MEL-2; type: cell-based, human; details: Melanoma SK-MEL-2, 48 h continuous drug exposure, —^b means GI50 values not attained at the concentrations used
Protocol: as §1, §2

UACC-257 = assay: Anticancer activity, SRB assay, melanoma cell line UACC-257; type: cell-based; details: Homo sapiens; Melanoma UACC-257; 48 h continuous drug exposure; read-out: Growth Inhibition GI50
Protocol: as §1, §2

[1] = Anticancer activity, SRB assay, non-small cell lung panel; type: cell-based, human; details: Homo sapiens; nine non-small cell lung cancer cell lines; exposure period of at least 48 h; read-out: GI50 (range over the panel)
Protocol: as §1, §2

[2] = test system: nine non-small cell lung cancer cell lines (A549/ATCC, EKVX, HOP-62, HOP-92, NCI-H226, NCI-H23, NCI-H322M, NCI-H460 and NCI-H522); assay: as above; type: cell-based, human; details: Non-small cell lung; for mean graph midpoint values (MG_MID) of log10 TGI (Log10TGI50): log value of concentration of the compound resulting in total inhibition of net cell growth; for mean graph midpoint values (MG_MID) of Log10LC50: log value of the concentration of compounds leading to 50% net cell death; for mean graph midpoint values (MG_MID) of Log10GI50: log values of concentration in mol/L causing 50% inhibition of net cell growth
Protocol: as §1, §2

[3] = test system: seven ovarian cancer cell lines (IGROV1, OVCAR-3, OVCAR-4, OVCAR-5, OVCAR-8, NCI/ADR-RES and SK-OV-3); assay: Anticancer activity, SRB assay, ovarian panel; type: cell-based, human; details: for GI50: Homo sapiens, seven ovarian cancer cell lines, exposure period of at least 48 h, read-out: GI50 (range over the panel); for mean graph midpoint values (MG_MID) of log10 TGI (Log10TGI50) / mean graph midpoint values (MG_MID) of Log10LC50 / mean graph midpoint values (MG_MID) of Log10GI50: Ovarian; for mean graph midpoint values (MG_MID) of log10 TGI (Log10TGI50): log value of concentration of the compound resulting in total inhibition of net cell growth; for mean graph midpoint values (MG_MID) of Log10LC50: log value of the concentration of compounds leading to 50% net cell death; for mean graph midpoint values (MG_MID) of Log10GI50: log values of concentration in mol/L causing 50% inhibition of net cell growth
Protocol: as §1, §2

[4] = test system: eight renal cancer cell line (786-0, A498, ACHN, CAKI-1, SN12C, TK-10, UO-31 and RXF 393); assay: Anticancer activity, SRB assay, renal panel; type: cell-based, human; design: mean graph midpoint values (MG_MID) of Log10LC50 / mean graph midpoint values (MG_MID) of log10 TGI (Log10TGI50): unit not given here; details: for GI50: Homo sapiens, eight renal cancer cell line, exposure period of at least 48 h, read-out: in vitro anticancer activity (range over the panel); for mean graph midpoint values (MG_MID) of log10 TGI (Log10TGI50) / mean graph midpoint values (MG_MID) of Log10LC50 / mean graph midpoint values (MG_MID) of Log10GI50: Renal; for mean graph midpoint values (MG_MID) of log10 TGI (Log10TGI50): log value of concentration of the compound resulting in total inhibition of net cell growth; for mean graph midpoint values (MG_MID) of Log10LC50: log value of the concentration of compounds leading to 50% net cell death; for mean graph midpoint values (MG_MID) of Log10GI50: log values of concentration in mol/L causing 50% inhibition of net cell growth
Protocol: as §1, §2

[5] = test system: sixty human cancer cell lines derived from nine cancer types; assay: Anticancer activity against sixty human cancer cell lines; type: cell-based
Protocol: as §1, §2

[6] = Homo sapiens, read-out: Growth Inhibition GI50

Compound | GI50 (HL-60(TB)) | GI50 (EKVX) | GI50 (NCI-H23) | GI50 (COLO 205) | GI50 (HCT-116) | GI50 (KM12) | GI50 (U251) | GI50 (MCF7) | GI50 (LOX IMVI) | GI50 (M14) | GI50 (UACC-257) | GI50 [1] | mean graph midpoint values (MG_MID) of log10 TGI (Log10TGI50) [2] | mean graph midpoint values (MG_MID) of Log10LC50 [2] | mean graph midpoint values (MG_MID) of Log10GI50 [2] | GI50 [3] | mean graph midpoint values (MG_MID) of log10 TGI (Log10TGI50) [3] | mean graph midpoint values (MG_MID) of Log10LC50 [3] | mean graph midpoint values (MG_MID) of Log10GI50 [3] | GI50 [4] | also measured
COc1ccc2cc(C#Cc3ccc(-n4c(/C=C/c5cc(OC)c(OC)c(OC)c5)nc5ccccc5c4=O)c(C)c3)ccc2c1 [Compound 6l, (E)-3-(4-((6-Methoxynaphthalen-2-yl)ethynyl)-2-methylphenyl)-2-(3,4,5-trimethoxystyryl)quinazolin-4(3H)-one] | 0.686 µM | 24.1 µM | 40.5 µM | 6.96 µM | 3.53 µM | 4.3 µM | 7.4 µM | 63.8 µM | 5.96 µM | 12.7 µM | 6.24 µM | 2.48 to 40.5 µM | >−4.00 | >−4.00 | −4.32 mol/L | 19.3 µM | >−4.00 | >−4.00 | −4.10 mol/L | 4.91 µM | Growth Inhibition GI50 (NCI-H226): —^b; Growth Inhibition GI50 (NCI-H322M): —^b; Growth Inhibition GI50 (HCC-2998): —^b; Growth Inhibition GI50 (SF-539): —^b; Growth Inhibition GI50 (IGROV1; 48 h continuous drug exposure): —^b; Growth Inhibition GI50 (OVCAR-5): —^b; Growth Inhibition GI50 (OVCAR-8): —^b; Growth Inhibition GI50 (A498): —^b; Growth Inhibition GI50 (SN12C): —^b; Growth Inhibition GI50 (DU-145): —^b; Growth Inhibition GI50 (T-47D): —^b; Growth Inhibition GI50 (SK-MEL-2): —^b; mean graph midpoint values (MG_MID) of log10 TGI (Log10TGI50) [4]: >−4.00; mean graph midpoint values (MG_MID) of Log10LC50 [4]: >−4.00; mean graph midpoint values (MG_MID) of Log10GI50 [4]: −4.16 mol/L; in vitro anticancer activity (in words) [5]: exhibiting an in vitro anticancer activity
Cc1cc(C#Cc2ccccc2)ccc1-n1c(/C=C/c2ccc(O)cc2)nc2ccccc2c1=O [Compound 4b, (E)-2-(4-Hydroxystyryl)-3-(2-methyl-4-(phenylethynyl)phenyl)quinazolin-4(3H)-one] | 1.66 µM | 2.43 µM | 3.62 µM | 1.99 µM | 2.66 µM | 3.24 µM | 4.33 µM | 2.72 µM | 2.78 µM | 3.26 µM | 4.18 µM | 2.22 to 13.1 µM | −4.32 | −4.04 | −5.47 mol/L | 3.09 to 20.6 µM | −4.23 | >−4.00 | −5.33 mol/L | 1.56 to 3.77 µM | GI50 (NCI-H226; Homo sapiens, NCI-H226, read-out: Growth Inhibition GI50): 3.99 µM; GI50 (NCI-H322M; Homo sapiens, NCI-H322M, read-out: Growth Inhibition GI50): 2.93 µM; GI50 (HCC-2998; [6]): 2.35 µM; GI50 (SF-539; [6]): 5.65 µM; GI50 (IGROV1; Homo sapiens, IGROV-1, 48 h continuous drug exposure, read-out: Growth Inhibition GI50): 20.6 µM; GI50 (OVCAR-5; [6]): 4.59 µM; GI50 (OVCAR-8; [6]): 3.98 µM; GI50 (A498; [6]): 1.56 µM; GI50 (SN12C; [6]): 3.77 µM; GI50 (DU-145; [6]): 4.87 µM; GI50 (T-47D; Homo sapiens, T47D, read-out: Growth Inhibition GI50): 2.02 µM; GI50 (SK-MEL-2; [6]): 1.93 µM; mean graph midpoint values (MG_MID) of log10 TGI (Log10TGI50) [4]: −4.65; mean graph midpoint values (MG_MID) of Log10LC50 [4]: >−4.00; mean graph midpoint values (MG_MID) of Log10GI50 [4]: −5.52 mol/L; in vitro anticancer activity (in words) [5]: exhibiting an in vitro anticancer activity
